Holding throughout (experiment): DTP human tumour cell line panel, 48 h
Assay [1] relates to NCI-H23.
For assay [2], the system named is NCI-H226.
The test system of assay [3] is LOX IMVI.
Assay [4] deals with RXF 393.
Assay [5] concerns U-251.
Assay [6] concerns T47D.
Assay [7] concerns MDA-MB-231.
Assay [8] deals with PC-3.
The subject of assay [9] is COLO 205.
The subject of assay [10] is SN12C.
Assay [11] deals with SF-268.
Assay [12] deals with HL-60.
The test system of assay [13] is SW-620.
Assay [14] deals with K562.
Assay [15] has as its system HCT-116.
For assay [16], the system named is ACHN.
Assay [17] concerns DU-145.
Assay [18] relates to OVCAR-4.
The test system of assay [19] is MOLT-4.
For assay [20], the system named is HOP-92.

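The compound was tested at five concentrations on cells cultured in 96-well plates, with a 48-hour exposure period. GI50 = concentration required for 50% inhibition of growth.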 The source made the active and inactive calls. No stated cut-off is given here; in the data, active = GI50 up to about 1.1 µM and inactive = higher.

One may read the GI50 as the concentration that inhibits growth by half. On to `NNC(=O)CCSc1ccccc1`, for which the GI50 in [1], in [2], in [3], in assay [4], in assay [5] and in [6] was > 100 µM (inactive) throughout. The GI50 in [7], in [8], in assay [9], in [10], in assay [11] and in assay [12] was > 100 µM (inactive) each time. Besides, the GI50 in [13], in [14], in [15], in [16], in assay [17] and in assay [18] was > 100 µM (inactive) each time. Moreover, the GI50 in assay [19] was > 100 µM (inactive).
On to `C=C(c1ccc2[nH]c(NC(=O)OC)nc2c1)c1cccs1`, for which the GI50 in assay [1] is 0.129 µM (active); in assay [2] it was 0.22 µM (active); in assay [3] it was 0.0986 µM (active); in assay [4], > 100 µM (inactive); in assay [5], 0.0791 µM (active); in [6], 0.354 µM (active). Further, the GI50 was 0.365 µM (active) in [7]; 0.0914 µM (active) in assay [8]; 0.129 µM (active) in assay [9]; 0.839 µM (active) in [10]; 2.02 µM (inactive) in assay [11]; < 0.0456 µM (active) in [14]. Also, the GI50 was 0.0675 µM (active) in [15], 0.06 µM (active) in assay [16], 0.309 µM (active) in [17] and 0.975 µM (active) in assay [20].
With `Cc1cc(C)c(OC(=O)Nc2cccc3ccccc23)c(-c2ccccc2)c1`, the GI50 in [1] was 30.5 µM (inactive); in assay [2] it was 18.3 µM (inactive); in assay [3], 24.8 µM (inactive); in [5], 37.8 µM (inactive); in [6], 48.6 µM (inactive); in assay [7], 25.5 µM (inactive). Further, the GI50 is 15.9 µM (inactive) in [8]; 50.1 µM (inactive) in assay [9]; 38.2 µM (inactive) in assay [10]; 12.6 µM (inactive) in assay [11]; 21.1 µM (inactive) in assay [12]; 57.8 µM (inactive) in [13]. The GI50 is 41.8 µM (inactive) in assay [14]; 34.9 µM (inactive) in [15]; 23.7 µM (inactive) in assay [16]; 31.9 µM (inactive) in assay [17]; 26.1 µM (inactive) in [20]; 31.3 µM (inactive) in [18]. Also, in assay [19], the GI50 was 3.81 µM (inactive).
Turning to `N#Cc1nc(CCCCCN2C(=O)c3ccccc3C2=O)oc1N`, the GI50 in [1], in [2], in [3], in assay [4], in assay [5] and in assay [6] was > 100 µM (inactive) throughout. Moreover, the GI50 in assay [7], in assay [8], in [9], in assay [10], in assay [11] and in [13] was > 100 µM (inactive) each time. Also, the GI50 in assay [14] was 17 µM (inactive); in assay [15], > 100 µM (inactive); in assay [16] it was > 100 µM (inactive); in assay [17] it was > 100 µM (inactive); in assay [18], > 100 µM (inactive); in assay [19], 75.7 µM (inactive).
With `NC1CC(=O)c2ccccc21` (stereo not given), the GI50 in assay [1], in assay [2], in assay [3], in assay [4], in [5] and in [6] was > 100 µM (inactive) throughout. Besides, the GI50 in assay [7], in [8], in assay [9], in [10], in [11] and in assay [13] was > 100 µM (inactive) each time. Also, the GI50 in assay [14], in assay [15], in assay [16], in assay [17], in assay [20] and in [18] was > 100 µM (inactive) throughout. Further, the GI50 in assay [19] was > 100 µM (inactive).
As to `O=[N+]([O-])C(=C(Nc1ccccc1)Nc1ccccc1)/C(Cl)=C(\Cl)Br`, the GI50 was 12.1 µM (inactive) in assay [1]; 0.671 µM (active) in assay [2]; 3.27 µM (inactive) in [3]; 15 µM (inactive) in [5]; 12.7 µM (inactive) in [6]; 15.6 µM (inactive) in assay [7]. Moreover, the GI50 is 15.6 µM (inactive) in [8]; > 10 µM (inactive) in assay [9]; 13.7 µM (inactive) in assay [10]; 16.8 µM (inactive) in assay [11]; 1.76 µM (inactive) in assay [12]; 6.82 µM (inactive) in [13]. For the same molecule, the GI50 in assay [14] is 2.92 µM (inactive); in [15], 6.05 µM (inactive); in assay [16] it was 11.4 µM (inactive); in [17] it was 16.5 µM (inactive); in [20], 17.7 µM (inactive); in assay [18], 11.9 µM (inactive). The GI50 in assay [19] is 3.1 µM (inactive).
In the case of `O=c1c(SSc2coc3cc(F)ccc3c2=O)coc2cc(F)ccc12`, the GI50 in assay [1] is 25.1 µM (inactive); in assay [2], > 100 µM (inactive); in assay [3] it was 2.65 µM (inactive); in assay [4] it was 32.2 µM (inactive); in assay [5], 21.3 µM (inactive); in assay [6], 20.7 µM (inactive). Moreover, the GI50 was 11.5 µM (inactive) in assay [7]; 7.82 µM (inactive) in [8]; 17.4 µM (inactive) in [9]; 15.2 µM (inactive) in assay [10]; 26.3 µM (inactive) in assay [11]; 8.59 µM (inactive) in assay [12]. The GI50 was 17.7 µM (inactive) in assay [13]; 19.9 µM (inactive) in assay [14]; 5.14 µM (inactive) in [15]; 6.92 µM (inactive) in [16]; 47.3 µM (inactive) in assay [17]; 7.31 µM (inactive) in assay [19].
Consider `CC(C)(Oc1ccc(Cl)cc1)C(=O)N(C(=O)N1CCCCC1)c1ccccc1`, for which the GI50 in assay [1] was 14.2 µM (inactive); in assay [2] it was 17.6 µM (inactive); in assay [3], 11.4 µM (inactive); in [4], 18 µM (inactive); in assay [5], 14.2 µM (inactive); in assay [6], 0.891 µM (active). Besides, the GI50 in [7] is 10.6 µM (inactive); in assay [8] it was 3.4 µM (inactive); in assay [9] it was 17.4 µM (inactive); in [10] it was 17 µM (inactive); in [11] it was 20.1 µM (inactive); in [12], 2.16 µM (inactive). Further, the GI50 is 12.9 µM (inactive) in assay [13]; 8.17 µM (inactive) in assay [14]; 5.32 µM (inactive) in [15]; 14.9 µM (inactive) in assay [16]; 14.7 µM (inactive) in assay [17]; 3.41 µM (inactive) in assay [19].
For the molecule `N#Cc1c(-c2ccc([N+](=O)[O-])cc2)cc(-c2ccc(Nc3ccnc4cc(C(F)(F)F)ccc34)cc2)[nH]c1=O`, the GI50 is > 100 µM (inactive) in assay [1]; > 100 µM (inactive) in assay [2]; > 100 µM (inactive) in assay [3]; > 100 µM (inactive) in [4]; 10 µM (inactive) in assay [5]; > 100 µM (inactive) in assay [6]. Besides, the GI50 in assay [7] is 16.3 µM (inactive); in assay [8] it was > 100 µM (inactive); in [9], 12.2 µM (inactive); in assay [10], > 100 µM (inactive); in [11], > 100 µM (inactive); in [13], > 100 µM (inactive). Also, the GI50 in assay [14] was > 100 µM (inactive); in assay [15], 22.2 µM (inactive); in assay [16], > 100 µM (inactive); in assay [17], 71.3 µM (inactive); in assay [18], > 100 µM (inactive); in assay [19], > 100 µM (inactive).
Consider `CC(C)(/N=N/C(C)(C)C1=NCCN1)C1=NCCN1`, for which the GI50 was > 100 µM (inactive) in assay [2]; > 66.1 µM (inactive) in assay [3]; > 100 µM (inactive) in [4]; > 100 µM (inactive) in assay [5]; 76.6 µM (inactive) in assay [6]; > 100 µM (inactive) in [7]. The GI50 in assay [8] is > 100 µM (inactive); in [9], > 100 µM (inactive); in assay [10], > 78.5 µM (inactive); in assay [11], > 100 µM (inactive); in assay [13], > 100 µM (inactive); in assay [14], > 56.5 µM (inactive). For the same molecule, the GI50 in assay [15], in assay [16], in assay [17], in assay [18] and in assay [19] was > 100 µM (inactive) in each case.
Regarding `CCCCc1cc2c(cc1O)CCC1C2CC[C@@]2(C)C1CC[C@@H]2O` (stereo not given in full), the GI50 in assay [1] was 20.2 µM (inactive); in [2], 16.9 µM (inactive); in [3], 16.6 µM (inactive); in assay [4], 2.89 µM (inactive); in assay [5], 19.4 µM (inactive); in assay [6], 8.97 µM (inactive). The GI50 in assay [7] is 29.3 µM (inactive); in assay [8], 12.4 µM (inactive); in assay [9] it was 24.7 µM (inactive); in assay [10], 18.7 µM (inactive); in assay [11], 29.6 µM (inactive); in assay [13] it was 20.2 µM (inactive). In addition, the GI50 in [14] is 9.38 µM (inactive); in assay [15] it was 14.3 µM (inactive); in assay [16], 16.2 µM (inactive); in assay [17], 18.3 µM (inactive); in [20] it was 20 µM (inactive); in assay [18], 20.4 µM (inactive). For the same molecule, the GI50 in assay [19] was 11.7 µM (inactive).
